Data reported in ChEMBL document CHEMBL4402545, “Subtype Selective γ-Aminobutyric Acid Type A Receptor (GABAAR) Modulators Acting at the Benzodiazepine Binding Site: An Update” (J Med Chem, 2020).

How the values were obtained:
[1] = Displacement of [3H]-Ro15-1788 from human GABAA alpha2beta3gamma2 expressed in HEK293 cell membranes incubated for 40 or 90 mins by liquid scintillation counting method
[2] = molecular target: T1, Gamma-aminobutyric acid receptor subunit alpha-3 (Homo sapiens) (UniProt P34903); assay: Binding affinity to GABA-A alpha3 (unknown origin) assessed as increase in induced current relative to control
T1 sequence (whole entry): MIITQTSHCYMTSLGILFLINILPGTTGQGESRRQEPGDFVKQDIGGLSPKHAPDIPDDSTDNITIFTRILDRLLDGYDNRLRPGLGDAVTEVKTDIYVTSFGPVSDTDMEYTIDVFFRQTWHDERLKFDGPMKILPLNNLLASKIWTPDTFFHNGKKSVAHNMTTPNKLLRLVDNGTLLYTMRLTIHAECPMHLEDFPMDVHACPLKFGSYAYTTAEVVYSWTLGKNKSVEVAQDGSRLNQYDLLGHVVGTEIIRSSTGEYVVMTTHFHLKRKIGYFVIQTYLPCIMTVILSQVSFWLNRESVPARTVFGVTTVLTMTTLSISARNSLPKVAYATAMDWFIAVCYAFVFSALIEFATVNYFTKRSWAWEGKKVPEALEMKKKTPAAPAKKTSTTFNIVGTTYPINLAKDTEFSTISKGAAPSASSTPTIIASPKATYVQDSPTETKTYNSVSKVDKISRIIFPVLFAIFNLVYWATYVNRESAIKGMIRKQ

[3] = molecular target: T2, GABA-A receptor; alpha-3/beta-3/gamma-2 (Homo sapiens, UniProt P18507+P28472+P34903); assay: Displacement of [3H]-Ro15-1788 from human GABAA alpha3beta3gamma2 expressed in HEK293 cell membranes incubated for 40 or 90 mins by liquid scintillation counting method
T2 sequence (P18507 whole entry): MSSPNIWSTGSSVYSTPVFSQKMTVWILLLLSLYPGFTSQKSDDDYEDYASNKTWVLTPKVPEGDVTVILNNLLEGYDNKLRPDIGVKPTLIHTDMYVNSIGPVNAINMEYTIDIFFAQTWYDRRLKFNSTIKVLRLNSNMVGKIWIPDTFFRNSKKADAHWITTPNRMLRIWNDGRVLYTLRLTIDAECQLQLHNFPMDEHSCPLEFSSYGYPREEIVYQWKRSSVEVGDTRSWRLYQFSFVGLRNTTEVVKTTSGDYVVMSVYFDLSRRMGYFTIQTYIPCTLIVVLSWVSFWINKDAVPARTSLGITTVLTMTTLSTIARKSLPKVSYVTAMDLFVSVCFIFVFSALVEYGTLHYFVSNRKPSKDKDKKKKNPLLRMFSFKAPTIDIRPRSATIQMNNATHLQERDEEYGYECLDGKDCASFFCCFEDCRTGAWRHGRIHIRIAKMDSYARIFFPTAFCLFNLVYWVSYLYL
T2 sequence (P28472 whole entry): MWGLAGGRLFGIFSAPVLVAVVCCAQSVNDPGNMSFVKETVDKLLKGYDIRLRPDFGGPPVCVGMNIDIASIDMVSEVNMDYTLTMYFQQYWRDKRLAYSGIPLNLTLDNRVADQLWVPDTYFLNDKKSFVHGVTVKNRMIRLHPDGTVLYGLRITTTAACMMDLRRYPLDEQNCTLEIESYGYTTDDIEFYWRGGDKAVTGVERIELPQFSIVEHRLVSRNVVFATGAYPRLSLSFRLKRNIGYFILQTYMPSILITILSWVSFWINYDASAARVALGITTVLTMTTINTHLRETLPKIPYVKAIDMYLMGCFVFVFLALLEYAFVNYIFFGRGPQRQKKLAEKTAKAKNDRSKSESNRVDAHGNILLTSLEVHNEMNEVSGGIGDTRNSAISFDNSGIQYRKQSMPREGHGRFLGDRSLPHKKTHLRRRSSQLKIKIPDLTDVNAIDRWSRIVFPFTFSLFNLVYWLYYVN
T2 sequence (P34903 whole entry): T1 sequence (whole entry)

[4] = molecular target: T3, Gamma-aminobutyric acid receptor subunit alpha-5 (Homo sapiens) (UniProt P31644); assay: Binding affinity to GABA-A alpha5 (unknown origin) assessed as increase in induced current relative to control
T3 sequence (whole entry): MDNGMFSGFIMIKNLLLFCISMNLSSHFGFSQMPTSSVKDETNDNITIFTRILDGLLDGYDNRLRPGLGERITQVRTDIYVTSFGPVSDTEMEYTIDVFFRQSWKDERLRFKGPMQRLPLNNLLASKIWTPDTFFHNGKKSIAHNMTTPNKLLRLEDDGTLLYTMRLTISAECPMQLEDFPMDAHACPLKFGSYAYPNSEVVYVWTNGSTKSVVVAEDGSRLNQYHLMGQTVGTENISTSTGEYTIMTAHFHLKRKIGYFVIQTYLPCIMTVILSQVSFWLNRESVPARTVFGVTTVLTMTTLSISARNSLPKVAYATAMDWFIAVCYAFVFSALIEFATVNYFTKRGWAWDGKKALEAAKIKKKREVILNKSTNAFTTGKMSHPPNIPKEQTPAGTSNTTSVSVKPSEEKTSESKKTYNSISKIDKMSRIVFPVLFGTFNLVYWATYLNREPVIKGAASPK

[5] = molecular target: T4, GABA-A receptor; alpha-1/beta-3/gamma-2 (Homo sapiens, UniProt P14867+P18507+P28472); assay: Displacement of [3H]-Ro15-1788 from human GABAA alpha1beta3gamma2 expressed in HEK293 cell membranes incubated for 40 or 90 mins by liquid scintillation counting method
T4 sequence (P14867 whole entry): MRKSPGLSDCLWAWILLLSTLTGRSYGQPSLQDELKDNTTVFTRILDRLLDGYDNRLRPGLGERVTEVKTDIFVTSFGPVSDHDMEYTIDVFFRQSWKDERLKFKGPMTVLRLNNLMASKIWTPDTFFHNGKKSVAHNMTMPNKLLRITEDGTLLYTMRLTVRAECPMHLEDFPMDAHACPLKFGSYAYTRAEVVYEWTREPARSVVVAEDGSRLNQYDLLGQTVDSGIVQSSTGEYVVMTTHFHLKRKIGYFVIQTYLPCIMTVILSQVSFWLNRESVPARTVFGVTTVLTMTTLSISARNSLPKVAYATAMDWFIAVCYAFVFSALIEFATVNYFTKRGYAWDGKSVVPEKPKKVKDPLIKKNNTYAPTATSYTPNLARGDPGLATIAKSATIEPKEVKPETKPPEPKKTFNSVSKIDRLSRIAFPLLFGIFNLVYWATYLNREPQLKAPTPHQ
T4 sequence (P18507 whole entry): T2 sequence (P18507 whole entry)
T4 sequence (P28472 whole entry): T2 sequence (P28472 whole entry)

[6] = molecular target: T5, GABA-A receptor; alpha-5/beta-3/gamma-2 (Homo sapiens, UniProt P18507+P28472+P31644); assay: Displacement of [3H]-Ro15-1788 from human GABAA alpha5beta3gamma2 expressed in HEK293 cell membranes incubated for 40 or 90 mins by liquid scintillation counting method
T5 sequence (P18507 whole entry): T2 sequence (P18507 whole entry)
T5 sequence (P28472 whole entry): T2 sequence (P28472 whole entry)
T5 sequence (P31644 whole entry): T3 sequence (whole entry)

Rattus norvegicus [7] = assay: In vivo receptor occupancy at GABAA receptor in po dosed Wistar rat brain assessed as brain concentration causing reduction in [3H]Flunitrazepam receptor labeling by scintillation counting method; type: functional
[8] = molecular target: T6, Gamma-aminobutyric acid receptor subunit alpha-2 (Homo sapiens) (UniProt P47869); assay: Binding affinity to GABA-A alpha2 (unknown origin) assessed as increase in induced current relative to control
T6 sequence (whole entry): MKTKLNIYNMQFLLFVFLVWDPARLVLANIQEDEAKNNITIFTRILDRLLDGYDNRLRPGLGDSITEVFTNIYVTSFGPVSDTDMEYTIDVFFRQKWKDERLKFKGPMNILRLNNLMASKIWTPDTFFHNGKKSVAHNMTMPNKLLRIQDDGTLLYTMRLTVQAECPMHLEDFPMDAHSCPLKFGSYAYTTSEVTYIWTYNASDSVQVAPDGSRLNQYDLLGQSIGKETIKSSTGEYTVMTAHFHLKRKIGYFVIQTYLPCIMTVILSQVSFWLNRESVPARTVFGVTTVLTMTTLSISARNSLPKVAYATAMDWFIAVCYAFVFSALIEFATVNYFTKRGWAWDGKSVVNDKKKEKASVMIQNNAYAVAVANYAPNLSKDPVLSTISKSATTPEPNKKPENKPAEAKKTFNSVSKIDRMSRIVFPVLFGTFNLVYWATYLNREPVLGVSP

[9] = molecular target: T7, Gamma-aminobutyric acid receptor subunit alpha-1 (Homo sapiens) (UniProt P14867); assay: Binding affinity to GABA-A alpha1 (unknown origin) assessed as increase in induced current relative to control
T7 sequence (whole entry): T4 sequence (P14867 whole entry)

[10] = molecular target: T1, Gamma-aminobutyric acid receptor subunit alpha-3 (Homo sapiens); assay: Binding affinity to GABA-A alpha3 (unknown origin) assessed as reduction in DMCM induced current relative to control
[11] = molecular target: T8, Gamma-aminobutyric acid receptor subunit alpha-1 (Homo sapiens, UniProt P14867); assay: Binding affinity to GABA-A alpha1 (unknown origin)
T8 sequence (P14867 whole entry): T4 sequence (P14867 whole entry)

Rattus norvegicus [12] = assay: In vivo receptor occupancy at GABAA receptor in po dosed Crl:CD Sprague-Dawley rat assessed as brain concentration causing 50% reduction in [3H]-Ro15-4513 receptor labeling after 1 hr; type: functional
[13] = molecular target: T9, Gamma-aminobutyric acid receptor subunit alpha-2 (Homo sapiens, UniProt P47869); assay: Binding affinity to GABA-A alpha2 (unknown origin)
T9 sequence (P47869 whole entry): T6 sequence (whole entry)

[14] = molecular target: T6, Gamma-aminobutyric acid receptor subunit alpha-2 (Homo sapiens); assay: Binding affinity to GABA-A alpha2 (unknown origin) assessed as reduction in DMCM induced current relative to control
[15] = molecular target: T10, Gamma-aminobutyric acid receptor subunit alpha-3 (Homo sapiens, UniProt P34903); assay: Binding affinity to GABA-A alpha3 (unknown origin)
T10 sequence (P34903 whole entry): T1 sequence (whole entry)

[16] = molecular target: T7, Gamma-aminobutyric acid receptor subunit alpha-1 (Homo sapiens); assay: Negative allosteric modulation of GABA-A alpha1 (unknown origin) assessed as reduction in DMCM induced current relative to control

SMILES | Ki [1] | fold change (FC) [2] | Ki [3] | fold change (FC) [4] | Ki [5] | Ki [6] | Occ50 (Rattus norvegicus [7]) | fold change (FC) [8] | fold change (FC) [9] | Efficacy [10] | Ki [11] | Occ50 (Rattus norvegicus [12]) | Ki [13] | Efficacy [14] | Ki [15] | Efficacy [16]
CC(C)(O)c1ccc2c(c1)ncn2-c1cccc(-c2ccccc2C#N)c1 | 0.84 nM | 0.52 | 0.5 nM | 0.78 | 0.41 nM | 0.12 nM | 0.69 mg/kg | 0.26 | 0.08 | – | – | – | – | – | – | –
Cc1c(F)c(Nc2ccc(-c3cn(C)cn3)cn2)cc2c1ncn2CC1CC1 | – | – | – | – | – | – | – | – | – | 0% | 140 nM | 1.9 mg/kg | 32 nM | 0% | 24 nM | 0%
